Test results: article PMC11380953, “Multivalent, calcium-independent binding of surfactant protein A and D to sulfated glycosaminoglycans of the alveolar epithelial glycocalyx” (American Journal of Physiology - Lung Cellular and …, 2024)

Target: T1, hSP-A (Homo sapiens, UniProt Q8IWL1+Q8IWL2)
T1 construct: Human PAP patient, BAL isolated; from tissue; host or cells: bronchoalveolar lavage fluid of a patient with pulmonary alveolar proteinosis
Experiment: Collectin-based binding assay (immobilized hSP-A, WGA-AlexaFluor488 detection)
Conditions: for normalized fluorescence of WGA bound to GAG on immobilized hSP-A: absence of calcium (Fig. 4B, C); for binding of immobilized hSP-A to GAG (normalized fluorescence): presence of 5 mM calcium (Fig. 4B, C)
Procedure: hSP-A was immobilized in a black 96-well plate (655076, Greiner BIO-One, Frickenhausen, Germany) by coating the plate with a specific anti-SP-A antibody (Abcam, abab190087, Cambridge, UK) at a concentration of 0.5 µg/mL in coating buffer [0.1 M NaHCO3 buffer (pH 9.6)] at 4°C overnight. Afterward, the plate was blocked with 100 µL Synblock (Bio-Rad, BUF034B, California) for 2 h at room temperature. Then, hSP-A was added at 14 ng/well and incubated with the antibody for 1 h at room temperature in washing buffer (5 mM Tris, 0.9% NaCl, and 0.05% Tween-20) to immobilize it. After washing with washing buffer, different concentrations of HA or HS ranging from 10 mM to 1 nM were added in either washing buffer without calcium or with 5 mM CaCl2 and incubated with the immobilized protein for 1 h at room temperature. The following washing steps were performed with washing buffer containing no calcium or 5 mM CaCl2. To detect the GAGs bound to the protein, an AlexaFluor488-conjugated wheat germ agglutinin (WGA, W11261, Invitrogen, Massachusetts) was added at 50 µg/mL in washing buffer containing no calcium or 5 mM CaCl2 and incubated it for 30 min at room temperature protected from light. After washing with washing buffer with or without calcium, 100 µL of washing buffer without calcium was added to read the fluorescence of the bound WGA with an excitation filter at 485 nm and an emission filter at 520 nm in a plate reader (FLUOstar Omega, BMG Labtech, Ortenberg, Germany).
The data of the binding inhibition assay were analyzed in GraphPad Prism 9.5.1 using the “normalize” function and fitting to the nonlinear regression dose-response inhibition. The best fitting was achieved using the “[Inhibitor] versus response–variable slope (four parameters)” model. The fluorescence values from the collectin-based binding assay were normalized using the same “normalize” function in GraphPad, and the statistical test used was the “non-parametric Kruskal-Wallis” test. The statistical test used for the DMMB assay for GAG quantification was also the “non-parametric Kruskal-Wallis” test.

T1 sequence (Q8IWL2 21-248): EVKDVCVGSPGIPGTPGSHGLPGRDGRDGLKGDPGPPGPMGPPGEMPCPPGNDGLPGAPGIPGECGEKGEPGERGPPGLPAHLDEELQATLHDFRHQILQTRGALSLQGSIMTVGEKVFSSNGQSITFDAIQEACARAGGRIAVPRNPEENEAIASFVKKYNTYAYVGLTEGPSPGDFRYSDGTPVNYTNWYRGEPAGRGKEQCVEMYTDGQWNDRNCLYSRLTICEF
T1 sequence (Q8IWL1 21-248): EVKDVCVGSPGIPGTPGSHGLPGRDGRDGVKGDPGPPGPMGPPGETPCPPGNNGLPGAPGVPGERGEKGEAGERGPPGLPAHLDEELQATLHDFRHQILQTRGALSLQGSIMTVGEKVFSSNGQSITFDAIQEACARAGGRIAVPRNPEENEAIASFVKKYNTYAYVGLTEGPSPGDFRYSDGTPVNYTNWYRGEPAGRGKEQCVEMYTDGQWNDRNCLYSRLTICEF

Substance: heparan sulfate sodium [HS]
- normalized fluorescence of WGA bound to GAG on immobilized hSP-A: increased fluorescence
- binding of immobilized hSP-A to GAG (normalized fluorescence): able to bind

Substance: hyaluronic acid sodium salt [HA]
- normalized fluorescence of WGA bound to GAG on immobilized hSP-A: no significant increase in fluorescence
- binding of immobilized hSP-A to GAG (normalized fluorescence): able to bind
